Measurements: publication PMC11054132, “Neuroprotective Effects of Chemical Constituents of Leaves of Euonymus hamiltonianus Wall” (Plants, 2024)
Entries after “also recorded” stand apart in the source; their conditions may differ.

What was measured:
[1] = Cytotoxicity (MTT assay) in BV-2 microglial cells; type: cell-based; settings: mouse; BV-2 microglial cells, MTT assay; read-out: IC50 Value (µM) Cytotoxicity
iNOS = test: Western blot of LPS-induced iNOS expression in BV-2 microglial cells; type: cell-based, mouse; settings: LPS-stimulated BV-2 microglial cells, various concentrations (1.0, 2.0, 4.0 µM)
Procedure: (§1) The anti-inflammatory effects of the fourteen compounds (1–14) isolated from E. hamiltonianus were evaluated in activated BV-2 microglial cells by the production of NO and proinflammatory cytokines. BV-2 microglial cells were stimulated with 0.1 µg/mL LPS for 12 h in the presence of the compounds at various concentrations, and the levels of NO in the culture supernatants were measured using Griess reactions. […] The compounds were continuously assessed to determine whether they suppressed the expression of iNOS and COX-2 in LPS-stimulated BV-2 microglial cells. The cells were stimulated with LPS in the presence of these compounds at various concentrations, and the expression levels of iNOS and COX-2 were determined by Western blotting. […] Thus, compound 3 may be considered a potential anti-inflammatory agent.
The total protein samples (10 μg) were loaded in sodium dodecyl sulfate polyacrylamide gel electrophoresis (SDS–PAGE) gels with 10% acrylamide/bis and transferred to polyvinylidene difluoride membranes (Millipore, Burlington, MA, USA). Then, the membranes were blocked with 5% silky milk dissolved in TBST (Tris Buffered saline Tween) for 1 h under room temperature and incubated overnight at 4 °C with specific primary antibodies (1:1000). After being washed with TBST, the membranes were incubated with secondary HRP-conjugated IgG (1:2000) at room temperature for 1 h and visualized using enhanced chemiluminescence (ECL) reagents (Thermo Fisher Scientific, Lafayette, CA, USA). Densitometry analysis of the bands was performed with the fusion solo system (Vilber, Paris, France). The band densities were determined as the intensities of protein by TotalLab TL120 software v2009 (TotalLab, Newcastle, UK).

COX-2 = test: Western blot of LPS-induced COX-2 expression in BV-2 microglial cells; type: cell-based, mouse; settings: LPS-stimulated BV-2 microglial cells, various concentrations (1.0, 2.0, 4.0 µM)
Procedure: as §1
The total protein samples (10 μg) were loaded in sodium dodecyl sulfate polyacrylamide gel electrophoresis (SDS–PAGE) gels with 10% acrylamide/bis and transferred to polyvinylidene difluoride membranes (Millipore, Burlington, MA, USA). Then, the membranes were blocked with 5% silky milk dissolved in TBST (Tris Buffered saline Tween) for 1 h under room temperature and incubated overnight at 4 °C with specific primary antibodies (1:1000). […] The band densities were determined as the intensities of protein by TotalLab TL120 software v2009 (TotalLab, Newcastle, UK).

[2] = test system: NO production in LPS-activated BV-2 microglial cells; test: NO production (Griess reaction) in LPS-stimulated BV-2 microglial cells; type: cell-based, mouse; settings: for IC50: pretreated 1 h, 100 ng/mL LPS (footnote 24 h; text 12 h), means ± SDs (n = 3); for Inhibitory effect on NO production (in words): LPS-stimulated BV-2 microglial cells
Procedure: as §1, with “BV-2 microglial cells were stimulated with 0.1 µg/mL LPS for 12 h in the presence of the compounds at various concentrations, and the levels of NO in the culture supernatants were measured using Griess reactions.” left out
For the Aβ-Hela-APPsw model, Hela cells were stably transfected with an APP carrying the Swedish mutation (APPsw) using BioT (Bioland Scientific LLC, Paramount, CA, USA) according to the manufacturer’s instructions, which was provided by Prof. Tae-Wan Kim (Department of Pathology, Columbia University of Medical Center, New York, NY 10032, USA). APPsw-transfected HeLa cells were grown in DMEM supplemented with 10% fetal bovine serum (FBS; Thermo Fisher Scientific, Lafayette, CA, USA), 1% penicillin/streptomycin (Thermo Fisher Scientific, Lafayette, CA, USA), 260 μg/mL Zeocin, and 400 μg/mL G418. The cells were maintained at 37 °C under a humidified atmosphere of 5% CO2. The stock sample solution was dissolved in DMSO and kept at −20 °C and diluted to the final concentration in fresh medium before each experiment. […] The EZ-Cytox kit (DAEILLAB, Cheongwon, Republic of Korea) was applied to detect the cell viability, following the manufacturer’s instructions, and measurements were taken by a microplate reader (BIO-TEK® Dower-Wave; BioTek, Winooski, VT, USA) under absorbance at 450 nm. The results were presented as the percentage of MTT reduction, compared with the control group as 100%. For the LPS-induced microglia model, the BV-2 mouse microglia cell line was provided by Prof. Lee Sung Jung’s research team in the College of Medicine, Seoul National University, and was cultured in DMEM-F12 with 5% FBS and 1% penicillin/streptomycin at 37 °C under a humidified atmosphere containing 5% CO2. And the cell viability assay was performed using the Aβ-Hela-APPsw model.
[…] The media were collected and centrifuged at 13,000 rpm for the removal of dead cells. The supernatants were collected and mixed with an equal volume (50 μL) of Griess reagents (1% sulfanilamide and N-(1-naphthyl) ethylenediamine dihydrochloride in 2.5% H3PO4) for 5 min at room temperature, and the Nitric Oxide concentration was measured at 540 nm using a microplate reader and compared with the sodium nitrite standard curve.

[3] = Mus musculus, BV-2, BV-2 microglial cells

| IC50 ([2]; BV-2 microglial cells) [µM] | IC50 [2, 3] [µM] | Compound | IC50 at 12 h [1] [µM] | LPS-induced iNOS protein expression (in words) (iNOS) | LPS-induced COX-2 protein expression (in words) (COX-2) | Inhibitory effect on NO production (in words) [2] |
| --- | --- | --- | --- | --- | --- | --- |
| 16.3 ± 2.94 | 14.4 | O=c1c(O[C@@H]2O[C@H](CO)[C@H](O)[C@H](O)[C@H]2O)c(-c2ccc(O)c(O)c2)oc2cc(O)cc(O)c12 [Compound 3, quercetin-3-O-β-D-galactopyranoside] | > 100 | suppressed; also recorded: most potent inhibitory activity; also recorded: effectively downregulated | suppressed; also recorded: most potent inhibitory activity | effectively downregulated; also recorded: good inhibitory effects |
| – | 14.4 ± 8.68 | O=c1c(O[C@@H]2O[C@H](CO)[C@@H](O)[C@H](O)[C@H]2O)c(-c2ccc(O)c(O)c2)oc2cc(O[C@@H]3O[C@H](CO)[C@@H](O)[C@H](O)[C@H]3O)cc(O)c12 [Compound 4, quercetin-3,7-di-O-β-D-glucopyranoside] | > 100 | suppressed; also recorded: effectively downregulated | suppressed | effectively downregulated; also recorded: good inhibitory effects |
